Experimental data as given in ChEMBL document CHEMBL4507269, “Data for DCP probe BAY-386” (2021).

Tests used:
[1] = biological target: TGF-beta receptor type-1 (Homo sapiens) (UniProt P36897); conditions: Compound concentration 1000.0 nM
[2] = biological target: Muscarinic acetylcholine receptor M3 (Homo sapiens) (UniProt P20309); conditions: Compound concentration 10.0 uM
[3] = biological target: NUAK family SNF1-like kinase 2 (Homo sapiens) (UniProt Q9H093); conditions: Compound concentration 1000.0 nM
[4] = biological target: Wee1-like protein kinase (Homo sapiens) (UniProt P30291); conditions: Compound concentration 1000.0 nM
[5] = biological target: Receptor-interacting serine/threonine-protein kinase 1 (Homo sapiens) (UniProt Q13546); conditions: Compound concentration 1000.0 nM
[6] = biological target: MAP/microtubule affinity-regulating kinase 3 (Homo sapiens) (UniProt P27448); conditions: Compound concentration 1000.0 nM
[7] = biological target: Calcium/calmodulin-dependent protein kinase type II subunit beta (Homo sapiens) (UniProt Q13554); conditions: Compound concentration 1000.0 nM
[8] = biological target: Sigma intracellular receptor 2 (Homo sapiens, UniProt Q5BJF2); conditions: Compound concentration 10.0 uM
[9] = biological target: Serine/threonine-protein kinase 17A (Homo sapiens) (UniProt Q9UEE5); conditions: Compound concentration 1000.0 nM
[10] = biological target: Dual specificity protein kinase CLK3 (Homo sapiens) (UniProt P49761); conditions: Compound concentration 1000.0 nM
[11] = biological target: Interleukin-1 receptor-associated kinase 3 (Homo sapiens) (UniProt Q9Y616); conditions: Compound concentration 1000.0 nM
[12] = tested on: Receptor-type tyrosine-protein kinase FLT3 (Homo sapiens), P36888 [UNDEFINED MUTATION]; conditions: Compound concentration 1000.0 nM
[13] = biological target: Somatostatin receptor type 4 (Homo sapiens) (UniProt P31391); experiment: sst4 (h) Eurofins-Cerep Cellular and Nuclear Receptor Functional Assays; conditions: Compound concentration 10.0 uM
[14] = biological target: Proto-oncogene tyrosine-protein kinase ROS (Homo sapiens) (UniProt P08922); conditions: Compound concentration 1000.0 nM
[15] = biological target: Mitogen-activated protein kinase kinase kinase 7 (Homo sapiens) (UniProt O43318); conditions: Compound concentration 1000.0 nM
[16] = biological target: Beta-adrenergic receptor kinase 1 (Homo sapiens) (UniProt P25098); conditions: Compound concentration 1000.0 nM
[17] = biological target: MAP/microtubule affinity-regulating kinase 4 (Homo sapiens) (UniProt Q96L34); conditions: Compound concentration 1000.0 nM
[18] = biological target: Fibroblast growth factor receptor 4 (Homo sapiens) (UniProt P22455); conditions: Compound concentration 1000.0 nM
[19] = biological target: Casein kinase I isoform gamma-3 (Homo sapiens) (UniProt Q9Y6M4); conditions: Compound concentration 1000.0 nM
[20] = biological target: Serine/threonine-protein kinase N1 (Homo sapiens) (UniProt Q16512); conditions: Compound concentration 1000.0 nM
[21] = biological target: Serine/threonine-protein kinase PRP4 homolog (Homo sapiens) (UniProt Q13523); conditions: Compound concentration 1000.0 nM
[22] = biological target: 5-hydroxytryptamine receptor 6 (Homo sapiens) (UniProt P50406); experiment: 5-HT6 (h) Eurofins-Cerep Cellular and Nuclear Receptor Functional Assays; conditions: Compound concentration 10.0 uM
[23] = biological target: Mitogen-activated protein kinase kinase kinase 13 (Homo sapiens) (UniProt O43283); conditions: Compound concentration 1000.0 nM
[24] = biological target: Tyrosine-protein kinase Fgr (Homo sapiens) (UniProt P09769); conditions: Compound concentration 1000.0 nM
[25] = biological target: Dual serine/threonine and tyrosine protein kinase (Homo sapiens) (UniProt Q6XUX3); conditions: Compound concentration 1000.0 nM
[26] = biological target: Tyrosine-protein kinase FRK (Homo sapiens) (UniProt P42685); conditions: Compound concentration 1000.0 nM
[27] = biological target: Melanocortin receptor 4 (Homo sapiens) (UniProt P32245); experiment: MC4 (h) Eurofins-Cerep Cellular and Nuclear Receptor Functional Assays; conditions: Compound concentration 10.0 uM
[28] = biological target: MAP kinase-interacting serine/threonine-protein kinase 2 (Homo sapiens) (UniProt Q9HBH9); conditions: Compound concentration 1000.0 nM
[29] = biological target: Cyclin-dependent kinase 18 (Homo sapiens) (UniProt Q07002); conditions: Compound concentration 1000.0 nM
[30] = biological target: Protein-tyrosine kinase 6 (Homo sapiens) (UniProt Q13882); conditions: Compound concentration 1000.0 nM
[31] = biological target: Serine/threonine-protein kinase haspin (Homo sapiens) (UniProt Q8TF76); conditions: Compound concentration 1000.0 nM
[32] = biological target: Discoidin domain-containing receptor 2 (Homo sapiens) (UniProt Q16832); conditions: Compound concentration 1000.0 nM
[33] = biological target: Tyrosine-protein kinase receptor UFO (Homo sapiens) (UniProt P30530); conditions: Compound concentration 1000.0 nM
[34] = biological target: Dual specificity tyrosine-phosphorylation-regulated kinase 2 (Homo sapiens) (UniProt Q92630); conditions: Compound concentration 1000.0 nM
[35] = biological target: Dual specificity tyrosine-phosphorylation-regulated kinase 1B (Homo sapiens) (UniProt Q9Y463); conditions: Compound concentration 1000.0 nM
[36] = biological target: Non-receptor tyrosine-protein kinase TNK1 (Homo sapiens) (UniProt Q13470); conditions: Compound concentration 1000.0 nM
[37] = tested on: Tyrosine-protein kinase ABL1 (Homo sapiens), P00519 [F317I]; conditions: Compound concentration 1000.0 nM
[38] = biological target: Macrophage colony-stimulating factor 1 receptor (Homo sapiens) (UniProt P07333); conditions: Compound concentration 1000.0 nM
[39] = biological target: Myosin light chain kinase (Homo sapiens) (UniProt Q32MK0); conditions: Compound concentration 1000.0 nM
[40] = biological target: Casein kinase I isoform alpha-like (Homo sapiens) (UniProt Q8N752); conditions: Compound concentration 1000.0 nM
[41] = biological target: Receptor-interacting serine/threonine-protein kinase 4 (Homo sapiens) (UniProt P57078); conditions: Compound concentration 1000.0 nM
[42] = biological target: 5-hydroxytryptamine receptor 2C (Homo sapiens) (UniProt P28335); conditions: Compound concentration 10.0 uM
[43] = biological target: Serine/threonine-protein kinase 17B (Homo sapiens) (UniProt O94768); conditions: Compound concentration 1000.0 nM
[44] = biological target: Activin receptor type-1-like (Homo sapiens) (UniProt P37023); conditions: Compound concentration 1000.0 nM

Sequence of 5-hydroxytryptamine receptor 6 (Homo sapiens) (P50406 whole entry): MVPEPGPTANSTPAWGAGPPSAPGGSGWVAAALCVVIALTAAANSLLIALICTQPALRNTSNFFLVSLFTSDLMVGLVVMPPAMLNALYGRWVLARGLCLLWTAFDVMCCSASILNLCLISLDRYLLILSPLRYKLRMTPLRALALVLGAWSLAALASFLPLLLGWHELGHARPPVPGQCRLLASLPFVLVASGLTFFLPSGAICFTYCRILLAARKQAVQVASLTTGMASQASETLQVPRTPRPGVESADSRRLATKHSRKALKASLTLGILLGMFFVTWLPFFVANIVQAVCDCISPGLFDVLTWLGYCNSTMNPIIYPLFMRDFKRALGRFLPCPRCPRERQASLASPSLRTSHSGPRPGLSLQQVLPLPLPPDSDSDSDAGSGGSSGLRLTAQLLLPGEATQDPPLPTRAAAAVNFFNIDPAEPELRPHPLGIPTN
Sequence of Somatostatin receptor type 4 (Homo sapiens) (P31391 whole entry): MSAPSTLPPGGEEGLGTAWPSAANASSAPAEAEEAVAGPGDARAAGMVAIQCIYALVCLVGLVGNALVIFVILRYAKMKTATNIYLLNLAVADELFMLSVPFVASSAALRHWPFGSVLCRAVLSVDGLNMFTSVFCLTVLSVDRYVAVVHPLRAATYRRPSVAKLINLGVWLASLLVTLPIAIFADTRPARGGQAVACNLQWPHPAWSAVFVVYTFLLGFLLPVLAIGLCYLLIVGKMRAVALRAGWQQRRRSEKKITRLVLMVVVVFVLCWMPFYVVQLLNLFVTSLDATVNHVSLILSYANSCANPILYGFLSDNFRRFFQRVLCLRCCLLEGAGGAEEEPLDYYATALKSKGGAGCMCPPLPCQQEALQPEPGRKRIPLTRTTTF
Sequence of Melanocortin receptor 4 (Homo sapiens) (P32245 whole entry): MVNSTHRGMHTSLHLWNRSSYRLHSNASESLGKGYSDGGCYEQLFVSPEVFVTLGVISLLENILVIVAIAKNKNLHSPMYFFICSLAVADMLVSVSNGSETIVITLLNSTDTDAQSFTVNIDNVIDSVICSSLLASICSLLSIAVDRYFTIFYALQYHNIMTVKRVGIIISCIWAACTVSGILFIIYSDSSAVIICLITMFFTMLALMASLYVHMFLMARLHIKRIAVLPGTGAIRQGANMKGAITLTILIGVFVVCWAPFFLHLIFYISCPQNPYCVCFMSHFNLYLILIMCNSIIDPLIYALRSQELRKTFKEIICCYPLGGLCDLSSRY
Sequence of Dual specificity protein kinase CLK3 (Homo sapiens) (P49761 whole entry, looked up): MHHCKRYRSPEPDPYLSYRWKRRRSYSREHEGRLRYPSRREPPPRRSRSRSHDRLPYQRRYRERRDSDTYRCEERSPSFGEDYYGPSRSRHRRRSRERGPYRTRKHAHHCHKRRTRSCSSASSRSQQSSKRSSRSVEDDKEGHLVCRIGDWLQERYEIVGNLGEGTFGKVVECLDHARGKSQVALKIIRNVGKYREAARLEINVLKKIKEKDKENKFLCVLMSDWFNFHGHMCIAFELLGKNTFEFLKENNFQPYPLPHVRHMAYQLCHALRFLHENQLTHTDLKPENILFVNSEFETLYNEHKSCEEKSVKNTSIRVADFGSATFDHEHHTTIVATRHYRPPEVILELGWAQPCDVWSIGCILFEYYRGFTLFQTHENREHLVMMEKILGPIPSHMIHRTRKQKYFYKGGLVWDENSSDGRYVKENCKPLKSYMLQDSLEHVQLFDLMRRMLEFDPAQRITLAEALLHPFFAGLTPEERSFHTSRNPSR
Sequence of Muscarinic acetylcholine receptor M3 (Homo sapiens) (P20309 whole entry, looked up): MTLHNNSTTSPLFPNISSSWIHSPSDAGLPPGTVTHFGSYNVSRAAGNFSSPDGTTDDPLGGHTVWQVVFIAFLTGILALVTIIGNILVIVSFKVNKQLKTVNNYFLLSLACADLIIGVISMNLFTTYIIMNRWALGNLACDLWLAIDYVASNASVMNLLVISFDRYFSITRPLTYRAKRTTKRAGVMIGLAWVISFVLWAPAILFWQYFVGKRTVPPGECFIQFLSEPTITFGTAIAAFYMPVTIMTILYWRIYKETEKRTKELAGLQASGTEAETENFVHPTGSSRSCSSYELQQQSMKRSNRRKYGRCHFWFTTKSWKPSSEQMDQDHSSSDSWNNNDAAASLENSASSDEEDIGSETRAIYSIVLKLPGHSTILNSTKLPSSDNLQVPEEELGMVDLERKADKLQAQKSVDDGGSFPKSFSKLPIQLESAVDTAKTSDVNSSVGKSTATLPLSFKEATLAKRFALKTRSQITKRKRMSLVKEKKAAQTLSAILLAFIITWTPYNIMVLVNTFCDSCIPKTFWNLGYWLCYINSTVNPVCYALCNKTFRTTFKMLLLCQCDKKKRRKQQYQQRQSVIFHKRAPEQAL
Sequence of Myosin light chain kinase (Homo sapiens) (Q32MK0 whole entry, canonical isoform): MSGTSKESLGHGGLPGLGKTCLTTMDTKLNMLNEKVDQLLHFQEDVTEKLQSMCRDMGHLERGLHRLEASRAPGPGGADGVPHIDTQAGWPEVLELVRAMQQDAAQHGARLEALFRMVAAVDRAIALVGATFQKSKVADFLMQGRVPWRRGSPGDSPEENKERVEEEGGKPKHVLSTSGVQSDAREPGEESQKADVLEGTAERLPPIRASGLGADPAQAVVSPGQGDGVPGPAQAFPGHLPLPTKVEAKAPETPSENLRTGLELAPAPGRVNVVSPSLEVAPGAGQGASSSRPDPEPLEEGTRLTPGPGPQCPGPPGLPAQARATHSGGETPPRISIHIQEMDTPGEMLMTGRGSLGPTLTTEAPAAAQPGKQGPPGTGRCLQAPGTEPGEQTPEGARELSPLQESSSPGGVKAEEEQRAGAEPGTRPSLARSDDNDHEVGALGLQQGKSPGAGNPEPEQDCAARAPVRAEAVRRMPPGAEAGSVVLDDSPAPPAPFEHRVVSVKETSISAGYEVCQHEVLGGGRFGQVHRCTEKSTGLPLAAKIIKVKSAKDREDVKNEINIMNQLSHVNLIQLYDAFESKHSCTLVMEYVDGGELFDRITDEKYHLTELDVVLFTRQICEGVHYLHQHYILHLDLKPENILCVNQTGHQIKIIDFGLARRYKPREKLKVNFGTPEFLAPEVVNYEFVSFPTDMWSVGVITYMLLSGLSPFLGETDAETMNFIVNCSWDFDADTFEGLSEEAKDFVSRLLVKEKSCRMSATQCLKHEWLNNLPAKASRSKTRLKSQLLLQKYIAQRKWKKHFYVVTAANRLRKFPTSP
Sequence of Receptor-interacting serine/threonine-protein kinase 4 (Homo sapiens) (P57078 whole entry): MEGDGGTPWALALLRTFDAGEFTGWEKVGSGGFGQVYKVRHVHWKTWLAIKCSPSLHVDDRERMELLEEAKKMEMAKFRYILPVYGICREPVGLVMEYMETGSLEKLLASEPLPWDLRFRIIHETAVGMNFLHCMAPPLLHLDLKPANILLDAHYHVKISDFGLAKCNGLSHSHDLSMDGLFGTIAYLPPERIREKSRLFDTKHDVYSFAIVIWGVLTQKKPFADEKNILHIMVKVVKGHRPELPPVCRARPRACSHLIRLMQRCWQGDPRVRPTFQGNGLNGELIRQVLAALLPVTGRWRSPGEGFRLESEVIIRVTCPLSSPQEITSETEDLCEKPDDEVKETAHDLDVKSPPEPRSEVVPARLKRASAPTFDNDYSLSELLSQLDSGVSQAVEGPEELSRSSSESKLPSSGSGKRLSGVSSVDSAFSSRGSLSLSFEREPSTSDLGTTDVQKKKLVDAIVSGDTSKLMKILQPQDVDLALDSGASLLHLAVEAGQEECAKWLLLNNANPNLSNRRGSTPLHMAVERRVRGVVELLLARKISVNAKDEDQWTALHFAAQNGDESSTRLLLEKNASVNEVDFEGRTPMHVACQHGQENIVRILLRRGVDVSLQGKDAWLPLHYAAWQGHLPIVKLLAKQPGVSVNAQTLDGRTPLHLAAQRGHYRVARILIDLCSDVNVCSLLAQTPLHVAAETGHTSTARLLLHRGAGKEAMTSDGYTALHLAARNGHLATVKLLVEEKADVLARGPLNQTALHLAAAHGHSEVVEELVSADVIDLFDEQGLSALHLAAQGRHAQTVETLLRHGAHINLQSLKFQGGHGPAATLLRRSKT
Sequence of Serine/threonine-protein kinase 17B (Homo sapiens) (O94768 whole entry): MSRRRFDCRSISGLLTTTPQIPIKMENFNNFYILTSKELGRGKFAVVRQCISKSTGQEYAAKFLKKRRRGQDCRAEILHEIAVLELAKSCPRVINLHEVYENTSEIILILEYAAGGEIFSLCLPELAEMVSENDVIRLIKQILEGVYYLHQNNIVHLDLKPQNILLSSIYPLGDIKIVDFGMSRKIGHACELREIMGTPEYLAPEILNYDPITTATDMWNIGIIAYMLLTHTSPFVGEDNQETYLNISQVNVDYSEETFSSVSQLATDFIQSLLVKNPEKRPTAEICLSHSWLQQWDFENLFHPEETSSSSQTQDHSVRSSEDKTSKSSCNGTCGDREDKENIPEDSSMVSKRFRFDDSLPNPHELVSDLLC
Sequence of Beta-adrenergic receptor kinase 1 (Homo sapiens) (P25098 whole entry): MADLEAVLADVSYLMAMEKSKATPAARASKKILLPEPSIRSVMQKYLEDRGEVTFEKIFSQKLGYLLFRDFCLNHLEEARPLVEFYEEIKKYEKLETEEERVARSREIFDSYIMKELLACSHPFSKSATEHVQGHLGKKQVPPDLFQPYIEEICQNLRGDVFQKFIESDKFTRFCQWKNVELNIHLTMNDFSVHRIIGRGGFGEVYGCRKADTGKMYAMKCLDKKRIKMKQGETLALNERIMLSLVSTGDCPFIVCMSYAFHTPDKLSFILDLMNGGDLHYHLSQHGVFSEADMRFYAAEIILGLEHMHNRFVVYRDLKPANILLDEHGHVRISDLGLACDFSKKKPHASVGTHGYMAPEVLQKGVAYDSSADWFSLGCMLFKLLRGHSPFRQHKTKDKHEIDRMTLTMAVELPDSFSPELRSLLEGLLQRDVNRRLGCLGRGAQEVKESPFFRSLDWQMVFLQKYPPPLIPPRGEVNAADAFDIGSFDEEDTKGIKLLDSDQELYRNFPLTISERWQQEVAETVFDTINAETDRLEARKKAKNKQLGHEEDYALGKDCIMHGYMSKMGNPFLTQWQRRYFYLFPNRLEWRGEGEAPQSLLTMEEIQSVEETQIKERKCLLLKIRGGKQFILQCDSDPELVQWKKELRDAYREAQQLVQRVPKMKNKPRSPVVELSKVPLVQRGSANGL

## O=C(N1CCS(=O)(=O)CC1)N1C[C@H](c2ccc(OC(F)(F)F)cc2)C[C@H](c2nc(C3CC3)no2)C1 [BAY-386]
[1]
  residual activity: 100%
[2]
  inhibition: -2.11%
[3]
  residual activity: 100%
[4]
  residual activity: 100%
[5]
  residual activity: 100%
[6]
  residual activity: 98%
[7]
  residual activity: 100%
[8]
  inhibition: 67.7%
[9]
  residual activity: 100%
[10]
  residual activity: 100%
[11]
  residual activity: 100%
[12]
  residual activity: 93%
[13]
  % Inhibition of Control Agonist Response (Mean n=2): -3.3%
  % of Control Agonist Response (Mean n=2): -13%
[14]
  residual activity: 100%
[15]
  residual activity: 100%
[16]
  residual activity: 66%
[17]
  residual activity: 100%
[18]
  residual activity: 100%
[19]
  residual activity: 100%
[20]
  residual activity: 100%
[21]
  residual activity: 97%
[22]
  % Inhibition of Control Agonist Response (Mean n=2): 21.1%
  % of Control Agonist Response (Mean n=2): 2.8%
[23]
  residual activity: 98%
[24]
  residual activity: 100%
[25]
  residual activity: 100%
[26]
  residual activity: 100%
[27]
  % Inhibition of Control Agonist Response (Mean n=2): -8.1%
  % of Control Agonist Response (Mean n=2): -1.2%
[28]
  residual activity: 94%
[29]
  residual activity: 0%
[30]
  residual activity: 100%
[31]
  residual activity: 95%
[32]
  residual activity: 100%
[33]
  residual activity: 100%
[34]
  residual activity: 100%
[35]
  residual activity: 93%
[36]
  residual activity: 100%
[37]
  residual activity: 100%
[38]
  residual activity: 100%
[39]
  residual activity: 79%
[40]
  residual activity: 100%
[41]
  residual activity: 97%
[42]
  inhibition: -4.94%
[43]
  residual activity: 100%
[44]
  residual activity: 100%

## Cc1noc([C@H]2C[C@@H](c3ccc(C(F)(F)F)cc3)CN(C(=O)N3CCS(=O)(=O)C3)C2)n1 [BAY-448]
[1]
  residual activity: 100%
[2]
  inhibition: -1.45%
[3]
  residual activity: 100%
[4]
  residual activity: 100%
[5]
  residual activity: 100%
[6]
  residual activity: 100%
[7]
  residual activity: 100%
[8]
  inhibition: 42.4%
[9]
  residual activity: 100%
[10]
  residual activity: 100%
[11]
  residual activity: 100%
[12]
  residual activity: 100%
[13]
  % Inhibition of Control Agonist Response (Mean n=2): 1.2%
  % of Control Agonist Response (Mean n=2): -2%
[14]
  residual activity: 86%
[15]
  residual activity: 100%
[16]
  residual activity: 83%
[17]
  residual activity: 84%
[18]
  residual activity: 100%
[19]
  residual activity: 100%
[20]
  residual activity: 100%
[21]
  residual activity: 72%
[22]
  % Inhibition of Control Agonist Response (Mean n=2): 2.1%
  % of Control Agonist Response (Mean n=2): 1.4%
[23]
  residual activity: 100%
[24]
  residual activity: 100%
[25]
  residual activity: 94%
[26]
  residual activity: 100%
[27]
  % Inhibition of Control Agonist Response (Mean n=2): 14.3%
  % of Control Agonist Response (Mean n=2): -1.8%
[28]
  residual activity: 100%
[29]
  residual activity: 97%
[30]
  residual activity: 100%
[31]
  residual activity: 100%
[32]
  residual activity: 74%
[33]
  residual activity: 100%
[34]
  residual activity: 100%
[35]
  residual activity: 76%
[36]
  residual activity: 100%
[37]
  residual activity: 100%
[38]
  residual activity: 100%
[39]
  residual activity: 100%
[40]
  residual activity: 100%
[41]
  residual activity: 68%
[42]
  inhibition: 37.1%
[43]
  residual activity: 100%
[44]
  residual activity: 100%
